Laboratory results reported in publication PMC11224556, “Next-generation of BBQ analogues that selectively target breast cancer” (Frontiers in Chemistry, 2024).
Like-named read-outs stand apart in the source and are kept apart here.

Tests used:
[1] = tested on: A431 (vulva/skin, ER+) cells; set-up: method as in Gilbert et al., 2020; settings: MTT, 72 h, ref Gilbert et al., 2020; cited from earlier work
[2] = tested on: MDA-MB-468 breast cancer cells; set-up: method as in Gilbert et al., 2020; settings: MDA-MB-468, Breast (TN); MTT, 72 h; ref Gilbert et al., 2020; cited from earlier work
H460 (lung, ER+) cells = tested on: H460 (lung, ER+) cells; set-up: method as in Gilbert et al., 2020; settings: MTT, 72 h, ref Gilbert et al., 2020; cited from earlier work
Du145 (prostate) cells = tested on: Du145 (prostate) cells; set-up: method as in Gilbert et al., 2020; settings: MTT, 72 h, ref Gilbert et al., 2020; cited from earlier work
[3] = tested on: ZR-75-1 breast cancer cells; set-up: method as in Gilbert et al., 2020; settings: ZR-75-1, Breast (ER/PR); MTT, 72 h; ref Gilbert et al., 2020; cited from earlier work
SJ-G2 (brain) cells = tested on: SJ-G2 (brain) cells; set-up: method as in Gilbert et al., 2020; settings: SJ-G2, Brain (GBM); MTT, 72 h; ref Gilbert et al., 2020; cited from earlier work
[4] = tested on: BT474 breast cancer cells; set-up: method as in Gilbert et al., 2020; settings: BT474, Breast (ER/PR/HER2); MTT, 72 h; ref Gilbert et al., 2020; cited from earlier work
U87 (brain) cells = tested on: U87 (brain) cells; set-up: method as in Gilbert et al., 2020; settings: U87, Brain (GBM); MTT, 72 h; ref Gilbert et al., 2020; cited from earlier work
HT29 (colorectal) cells = tested on: HT29 (colorectal) cells; set-up: method as in Gilbert et al., 2020; settings: HT29, Colon; MTT, 72 h; ref Gilbert et al., 2020; cited from earlier work
AhR mRNA = experiment: Gene expression analysis (qPCR) in MDA-MB-468 cells; assay type: cell-based, human; settings: 1 μM and the GI50 value, 6 h
Experimental: (§1) These analogues were specifically chosen because they were synthesised without the production of regioisomers, their structural differences are small while their biological differences are large, c.f. […] Neither analogue altered the expression of SULT1A1 (Figure 4D).
(§2) Gene expression was examined in MDA-MB-468 cells following 6 h treatment. Total RNA was extracted using the RNeasy Mini Kit (Qiagen) according to the manufacturer’s instructions. One µg of RNA was reverse transcribed using the QuanitTect Reverse Transcription Kit (Qiagen) according to the manufacturer’s instructions. Rotor-Gene SYBR Green PCR Kit (Qiagen) was used to perform qPCR on a Rotor-Gene 3,000 Thermo-Cycler Instrument using β2-microglobulin as a housekeeping gene (Qiagen). The primer sequences were purchased from Qiagen as follows: AhR (QT02422938), CYP1A1 (QT00012341), CYP1B1 (QT00209496), SULT1A1 (QT01665489), and β2M (QT00088935). HotStar Taq activation (95 °C for 5 min) was followed by 40 cycles of denaturation (95 °C for 5 s), and annealing/extension (60 °C for 10 s). The comparative Ct value method was used for data analysis. Results are presented as the mean ± standard error of the mean (SEM) of analysis conducted in duplicate and repeated on two separate occasions. Significant test results were determined using T-test analysis at p < 0.01 with a two tail distribution.

CYP1A1 mRNA = experiment: as above; assay type: cell-based, human; settings: 6 h
Experimental: as §1, §2

CYP1B1 mRNA = experiment: as above; assay type: cell-based, human; settings: 1.0 μM, 6 h
Experimental: as §1, §2

[5] = tested on: MCF10A normal breast cells; experiment: MTT growth inhibition with CYP1 (αNF) or SULT1A1 (quercetin) inhibitor; assay type: cell-based, human; settings: 3 and 5 at 0.1 µM, αNF 10 µM, quercetin 5 µM, 72 h (Supp Figure 1)
Experimental: (§3) This analysis confirms that both CYP1 and SULT1A1, activity is needed to induce the growth inhibitory effect of the BBQ analogue.
(§4) Cells in logarithmic growth were transferred to 96-well plates. Cytotoxicity was determined by plating cells in duplicate in 100 μL medium at a density of 2,500–4,000 cells/well in 96 well plates. On day 0, (24 h after plating) when the cells were in logarithmic growth 100 μL medium with or without the test agent was added to each well. After 72 h drug exposure growth inhibitory effects were evaluated using the MTT (3-[4,5-dimethylthiazol-2-yl]-2,5-diphenyltetrazolium bromide) assay with absorbance read at 540 nm. An eight-point dose response curve was produced, using MS Excel software. From these dose-response curves, the GI50 value was calculated, representing the drug concentration at which cell growth is 50% inhibited based on the difference between the optical density values on day 0 and those at the end of drug exposure ([Bradshaw et al., 2008]; [Zhang et al., 2009]). Each data point was conducted in duplicate and the mean ± S.E.M. calculated from four to five replicates (n = 4 or 5), which were performed on separate occasions and separate cell line passages. Where shown, significant test results were determined using T-test analysis at p < 0.01 and p < 0.05 with a two tail distribution.
(§5) Supp Figure 1. CYP1 and SULT1A1 inhibition ameliorates the effect of 3 and 5. Growth inhibition (72 h, MTT assay) of 3 and 5 (0.1 µM) in the presence of the CYP1 family inhibitor, α-naphthoflavone (αNF, 10 µM) and SULT1A1 inhibitor, quercetin (qu, 5 µM) in (A) MDA-MB-468 breast cancer cells and (B) MCF10A normal breast cells. Significant differences are at the P < 0.01 ** level, using a paired T-test with a two-tailed distribution.

[6] = tested on: MDA-MB-468 breast cancer cells; experiment: MTT growth inhibition with co-administered CYP1 (αNF) or SULT1A1 (quercetin) inhibitor; assay type: cell-based, human; settings: for fold reduction of growth inhibition (GI50 shift): MDA-MB-468
Experimental: as §3
FIGURE 5 CYP1 and SULT1A1 inhibition ameliorates the effect of 5. Growth inhibition (72 h, MTT assay) of 5 in the presence of the (A) CYP1 family inhibitor, α-naphthoflavone (αNF, 10 μM) and (B) SULT1A1 inhibitor, quercetin (5 μM), in MDA-MB-468 breast cancer cells. […] The effect of αNF and quercetin at the single concentration of 10µM and 5 µM respectively is shown in red as a single value.
as §4
as §5, with “Significant differences are at the P < 0.01 ** level, using a paired T-test with a two-tailed distribution.” left out

Structure (SMILES): Nc1ccccc1N1C(=O)c2cccc3cccc(c23)C1=O [Compound 2, 2-(2-aminophenyl)-1H-benzo[de]isoquinoline-1,3(2H)-dione]
- GI50 [1]: 250 ± 120 nM
- GI50 [2]: 100 ± 20 nM
- GI50 (H460 (lung, ER+) cells): 15000 ± 7500 nM
- GI50 (Du145 (prostate) cells): > 50000 nM
- GI50 [3]: 120 ± 30 nM
- GI50 (SJ-G2 (brain) cells): > 50000 nM
- GI50 [4]: 430 ± 70 nM
- GI50 (U87 (brain) cells): > 50000 nM
- GI50 (HT29 (colorectal) cells): 32000 ± 2000 nM

Structure (SMILES): O=c1c2cccc3cccc(c32)c2nc3ccc(Cl)cc3n12 [Compound 3, 10-Chloro-7H-benzo[de]benzo[4,5]imidazo[2,1-a]isoquinolin-7-one]
- effect on expression of AhR (AhR mRNA): not significantly altered
- CYP1A1 Fold change (mRNA vs DMSO control) (CYP1A1 mRNA; 0.2 μM): 18 fold
- CYP1A1 Fold change (mRNA vs DMSO control) (CYP1A1 mRNA; 1.0 μM): 20 fold
- CYP1B1 Fold change (mRNA vs DMSO control) (CYP1B1 mRNA): 3.7 fold
- effect on growth in normal MCF10A cells [5]: Neither 3, 5, αNF, or quercetin affected growth

Structure (SMILES): O=c1c2cccc3cccc(c32)c2nc3ccccc3n12 [Compound 5, 7H-Benzo[de]benzo[4,5]imidazo[2,1-a]isoquinolin-7-one]
- effect on expression of AhR (AhR mRNA): not significantly altered
- CYP1A1 Fold change (mRNA vs DMSO control) (CYP1A1 mRNA; 0.02 μM): 12 fold
- CYP1A1 Fold change (mRNA vs DMSO control) (CYP1A1 mRNA; 1.0 μM): 15 fold
- CYP1B1 Fold change (mRNA vs DMSO control) (CYP1B1 mRNA): 4.6 fold
- effect on growth in normal MCF10A cells [5]: Neither 3, 5, αNF, or quercetin affected growth
- GI50 ([6]; Homo sapiens, compound alone (no inhibitor), MDA-MB-468, MTT, 72 h): 5 nM
- fold reduction of growth inhibition (GI50 shift) ([6]; with quercetin 5 μM vs alone): 4.6 fold
- fold reduction of growth inhibition (GI50 shift) ([6]; with α-naphthoflavone 10 μM vs alone): 36 fold

Structure (SMILES): O=c1c2cccc3cccc(c4n1Cc1ccccc1N=4)c32 [Compound 13, 7H,9H-benzo[4,5]isoquinolino[1,2-b]quinazolin-7-one]
- melting point: 256 to 258 °C
